This data set can be described thus: Human HepG2 cell viability assay in 384 well format. Type of data set: toxicity, cell-based. Also noted: dose 125 nL, time 70.5 hour; cytotoxicity at 70.5 h: concentration not given beside the values. Particulars: HepG2 cells, read-out: Inhibition.
For `O=c1n(Cc2ccc(C(F)(F)F)cc2)nc2ncccn12`, the cytotoxicity at 70.5 h was determined as 24.3%.

Take `CC(C)c1csc(NC(=O)NC2CCCN(c3cnn(C)c3)C2)n1` (configuration not stated): the cytotoxicity at 70.5 h was -7.46%.

As to `Cn1ccnc1CN1CCN(CC(O)c2ccc(F)cc2)CC1` (configuration not stated), the cytotoxicity at 70.5 h was -3.86%.

For `COC(=O)c1sccc1S(=O)(=O)NCCc1ccoc1`, the cytotoxicity at 70.5 h was -5.25%.

In the case of `O=C(CCc1cccs1)N1CCCC(n2ccnc2)C1` (configuration not stated), the cytotoxicity at 70.5 h was -5.36%.

As to `Fc1ccccc1Cc1noc(CN2CC[C@@H]3CCCC[C@H]3C2)n1`, the cytotoxicity at 70.5 h is -4.61%.

For `COCC(=O)N1CCC2(CCCN(Cc3cnn(C)c3)C2)C1` (configuration not stated), the cytotoxicity at 70.5 h was -3.28%.

For the compound `CCc1ccc(C(=O)NCC2CCCN2CC)o1` (configuration not stated), the cytotoxicity at 70.5 h is -3.5%.

In the case of `Cc1cc(NCCCNc2cccnc2)n2nc(C)c(C)c2n1`, the cytotoxicity at 70.5 h was -10.7%.

Take `CCOc1cccc(C(C)NCc2c(C)nn(C)c2N(C)C)c1` (configuration not stated): the cytotoxicity at 70.5 h is -8.02%.

For `NC(=O)c1cccc(CCNCc2cnc(C3CCC3)s2)c1`, the cytotoxicity at 70.5 h worked out at 7.84%.

For `CN(C)[C@@H]1CN(C(=O)CCc2ccccc2)[C@@H]2CCCO[C@H]12`, the cytotoxicity at 70.5 h was -3.71%.

Consider `Cn1cccc1-c1cc(C(=O)N2CC(c3cccnc3)C2)[nH]n1`, for which the cytotoxicity at 70.5 h is -5.83%.

On to `Cc1ccc(-c2nnc(CNC(=O)c3cccnc3)o2)cn1`, for which the cytotoxicity at 70.5 h is -16.3%.

Consider `Cc1cc(C(=O)NCc2cccnc2N(C)C)c(C)o1`, for which the cytotoxicity at 70.5 h is 14.3%.

On to `CC(C)OCCCNC(=O)Nc1cccc2ncccc12`, for which the cytotoxicity at 70.5 h was -2.69%.

As to `COCCN1C(=O)[C@H]2CC[C@@H]1CN(C(=O)CCc1n[nH]c(C)c1C)C2`, the cytotoxicity at 70.5 h is -13.9%.

As to `CCN1CC2(CCC1=O)CCN(Cc1cc(F)ccc1Cl)CC2`, the cytotoxicity at 70.5 h is -0.396%.

With `CCc1cnc(N)nc1NCCCN1CCCCC1CO` (configuration not stated), the cytotoxicity at 70.5 h was -8.8%.

For `Cc1cn[nH]c1C1CCCN1Cc1ccc(F)c(F)c1` (configuration not stated), the cytotoxicity at 70.5 h was -0.872%.

With `CN(Cc1ccc2c(c1)OCO2)C(=O)NCCc1cnn(C)c1`, the cytotoxicity at 70.5 h is -3.13%.

Regarding `FC(F)Sc1ccc(NCc2nnc(C3CC3)o2)cc1`, the cytotoxicity at 70.5 h is -4.17%.

In the case of `Cc1cc(CNc2ccc(C(F)(F)F)cc2)no1`, the cytotoxicity at 70.5 h is -7.03%.

Take `O=C(NCc1cccc(N2CC=CC2)c1)NCC(F)(F)F`: the cytotoxicity at 70.5 h was -2.26%.

On to `CCn1nc2c(cc1=O)CN(Cc1nc(-c3ccco3)no1)CC2`, for which the cytotoxicity at 70.5 h is -10.1%.

In the case of `CN1CC(c2ccccc2)CC12CCN(C(=O)c1ccc(Cl)cn1)CC2` (configuration not stated), the cytotoxicity at 70.5 h was determined as 19.6%.

On to `Cc1cc(CN(Cc2ccccc2)C2CC2)on1`, for which the cytotoxicity at 70.5 h was -0.663%.

In the case of `CCc1nnc(CN(C)C(=O)CN2CC(c3ccccc3)CC2=O)o1` (configuration not stated), the cytotoxicity at 70.5 h is -4.25%.

`O=C(NC[C@H]1C[C@@H]2CCN1C[C@@H]2CN1CCCC1)c1ccco1`: the cytotoxicity at 70.5 h was -4.55%.

Take `CC(CO)CNC(=O)c1cc2cccc(F)c2o1` (configuration not stated): the cytotoxicity at 70.5 h is -9.63%.

Take `NC(=O)Cn1cc(NC(=O)N2CCCC(O)C2)cn1` (configuration not stated): the cytotoxicity at 70.5 h was -4.87%.

For the compound `Cc1ccc(CN2CCC3(CC2)CN(c2cnn(C)c2)C(=O)CO3)o1`, the cytotoxicity at 70.5 h is -9.82%.

On to `O=C1C[C@H]2[C@@H](CCN2Cc2ccccn2)N1Cc1cccnc1`, for which the cytotoxicity at 70.5 h was -6.81%.

For the compound `Cc1ccc(CN2CC[C@@H](NC(=O)c3cccnc3)[C@H](O)C2)s1`, the cytotoxicity at 70.5 h was -10.7%.

As for `CCC(C(=O)NCC1=CCCN(C)C1)c1ccccc1` (configuration not stated), the cytotoxicity at 70.5 h is -13.4%.

Consider `CN(C)Cc1nn(C)c2c1CCN(C(=O)c1cccnc1)C2`, for which the cytotoxicity at 70.5 h is -20.7%.

As for `CCC(NC(=O)c1cc(CC(C)C)nn1C)c1cc(C)ccn1` (configuration not stated), the cytotoxicity at 70.5 h was -19.2%.

As to `CC(C)NC(=O)NC[C@H]1C[C@@H]2CCN1C[C@@H]2CN(C)c1ccccc1`, the cytotoxicity at 70.5 h was -0.173%.

Take `Cc1nnc(SCCNc2cc(C3CC3)ncn2)s1`: the cytotoxicity at 70.5 h was -5.85%.

For the compound `Cc1noc2ncnc(NC(CC(C)(C)C)c3cccnc3)c12` (configuration not stated), the cytotoxicity at 70.5 h was -14%.

Turning to `CC(C)c1csc(C2CCCN(C(=O)c3ncccn3)C2)n1` (configuration not stated), the cytotoxicity at 70.5 h stood at 13%.

Turning to `Cc1nc2cc(O)nn2c(C)c1CCC(=O)N(C)Cc1cscn1`, the cytotoxicity at 70.5 h came out at 30.1%.

In the case of `CN(C)c1ncc2c(n1)CCCC2NC(=O)C1CC1` (configuration not stated), the cytotoxicity at 70.5 h is -11.8%.

Take `Cc1ccccc1CNC(C)c1ccc(OCC(=O)NC2CC2)cc1` (configuration not stated): the cytotoxicity at 70.5 h was determined as 13.8%.

With `Cn1cc(C(=O)NCC2CCN(C(=O)NCC(F)(F)F)CC2)cn1`, the cytotoxicity at 70.5 h came to 2.26%.

As for `c1ncn(CC2CCCCN2Cc2cn3ccsc3n2)n1` (configuration not stated), the cytotoxicity at 70.5 h is 5.43%.

For the compound `COC(=O)CN1CCN(c2nc3c(s2)c(C)nn3C)C(C)C1=O` (configuration not stated), the cytotoxicity at 70.5 h came to 3.44%.

As to `CC(C)CC(=O)Nc1ccc2c(c1)ncn2CC(=O)NCCN(C)C`, the cytotoxicity at 70.5 h is -6.17%.

Take `CCCOC1CCCN(C(=O)c2ccnnc2)C1` (configuration not stated): the cytotoxicity at 70.5 h is -2.27%.

With `O=C(c1cccs1)N1CCCC2(COCCN(c3cccnc3)C2)C1` (configuration not stated), the cytotoxicity at 70.5 h is -6.3%.

With `CS(=O)(=O)N1CC[C@H]2OCC[C@@]2(C(=O)NCC2CC2)C1`, the cytotoxicity at 70.5 h is -7.08%.

Take `Cc1nc(N2CCCC2)nc(C)c1NC(=O)c1ccco1`: the cytotoxicity at 70.5 h is -1.46%.

For `CC(=O)N1CCCC1c1ccnc(Nc2cncnc2)n1` (configuration not stated), the cytotoxicity at 70.5 h was -15.4%.

Turning to `O=C1CCCN1CCN1CC=C(c2cnn(C3CCS(=O)(=O)C3)c2)CC1` (configuration not stated), the cytotoxicity at 70.5 h was -10.3%.

Consider `CCOC(=O)NCCC(=O)NCc1ccc(Oc2cccc(F)c2)nc1`, for which the cytotoxicity at 70.5 h is -3.11%.

For the compound `CC(C)(C)CC(=O)Nc1ncn(CC(=O)NCc2ccccc2)n1`, the cytotoxicity at 70.5 h turned out to be 25.6%.

On to `Cn1nccc1C1CCN(Cc2csc(-c3ncccn3)n2)CC1`, for which the cytotoxicity at 70.5 h is -5.7%.

As for `CC(=O)N1CCN(C(=O)c2ccc3ccn(C)c3c2)CC1`, the cytotoxicity at 70.5 h was -15.9%.

For `CCC(NC(=O)CC(F)(F)F)c1ccccc1OCC(=O)N1CCCC1` (configuration not stated), the cytotoxicity at 70.5 h is -7.99%.

With `COc1cccc(-c2n[nH]c3c2CN(C(=O)C2=C(C)OCCO2)CC3)c1`, the cytotoxicity at 70.5 h was -4.06%.

Regarding `CCCc1nnc(NC2CCN(C3CCOCC3)CC2)o1`, the cytotoxicity at 70.5 h was -9.47%.

On to `CNc1nc(C(=O)N2CCN(c3ccc(Cl)c(Cl)c3)CC2)cs1`, for which the cytotoxicity at 70.5 h is -6.48%.

Turning to `O=C(NCCc1c[nH]cn1)c1n[nH]c2c1CCC2`, the cytotoxicity at 70.5 h was -8.54%.

For `COc1ccccc1C(O)Cn1cc(C(=O)NCc2ccco2)nn1` (configuration not stated), the cytotoxicity at 70.5 h turned out to be 0.751%.

As to `NC(=O)CN(Cc1ncc(-c2ccc(F)cc2)o1)C1CCCC1`, the cytotoxicity at 70.5 h was -14.2%.

Consider `Cc1nn(C)c(N(C)C)c1CNC1CCc2c(F)cccc21` (configuration not stated), for which the cytotoxicity at 70.5 h turned out to be 7.05%.

On to `COc1ccc(Oc2nccc3occc23)cc1CN1CCCC1`, for which the cytotoxicity at 70.5 h was -6.39%.

Turning to `COc1ccccc1C(=O)NC[C@H]1COCc2nc3c(C)cccc3n21`, the cytotoxicity at 70.5 h is -1.28%.

With `Nc1cc(-c2nccnc2N2CCCC2)c2cc[nH]c2n1`, the cytotoxicity at 70.5 h was -11.5%.

Regarding `COc1cc(C)nc(N2CCN(C(=O)COCC(F)(F)F)CC2)n1`, the cytotoxicity at 70.5 h is -15.4%.

On to `Cc1nc(C(NC(=O)CC(F)(F)F)c2ccc(Cl)cc2)no1` (configuration not stated), for which the cytotoxicity at 70.5 h is -2.37%.

With `Fc1ccc(OC2CCN(Cc3nnc(-c4ccco4)o3)CC2)cc1`, the cytotoxicity at 70.5 h worked out at 18.9%.

The record behind these values is ChEMBL document CHEMBL3507680, “University of Dundee, Gates Library screen for HepG2 cell viability”.
